Test results: US20220017520A1, “MACROCYCLIC COMPOUND AS CDK INHIBITOR, PREPARATION METHOD THEREFOR, AND USE THEREOF IN MEDICINE” (Keythera (Suzhou) Pharmaceuticals Co. Ltd., priority 2018, published 2022)

How the values were obtained:
metastatic breast cancer = details: drug alone, patients with hormone receptor-positive metastatic breast cancer, Phase I; cited from earlier work
MCF-7 cells = experiment: In vitro cell proliferation assay by BrdU method; format: cell-based; details: 72 hours, 10% FBS
Experimental: In Vitro Cell Inhibitory Activity of the Compound of the Present Invention
Experimental method: Cell proliferation assay was carried out by BrdU method (BrdU cell proliferation assay kit, Cell Signaling Technology Co.)
Preparation of gradient dilution solution of test compound: the 10 mM stock solution of test compound was subjected to 4-fold serial gradient dilution with DMSO to obtain solutions with a concentration of 2.5 mM, […], respectively. 2 μL of DMSO-diluted compound was added to 198 μL of culture medium containing 10% FBS to obtain 10-fold test compound, wherein the maximum concentration of the test compound was 10 μM, the DMSO concentration was 1%, with a total of 7 concentration gradients.
MCF-7 culture medium: DMEM+10% FBS+0.01 mg/mL insulin
(1) Cells grown to 80% (in exponential growth phase) were digested with pancreatin, and were collected by centrifugation. MDA-MB-435S cells and U87MG cells were re-suspended in a FBS-free culture medium, counted and inoculated to a 96-well plate; MDA-MB-435S cells were inoculated at 3000 cells/well/81 μL, and U87MG cells were inoculated at 4000 cells/well/81 μL. MCF-7 cells were resuspended in a culture medium containing 1% FBS, counted and inoculated to a 96-well plate at 4000 cell/well/82 μL. The cells were incubated in a cell incubator at 37° C.
(2) After 24 hours of incubation, FBS (9 μL) was added to each well of the MDA-MB-435S cells and U87MG cells, and 8 μL of FBS was added to each well of the MCF-7 cells, so as to obtain a final FBS concentration of 10%.
(3) A different concentration of 10-fold test compound (10 μL) was added to each well to obtain a final concentration of test compound of 10 μM, 2.5 μM, 625 nM, 156 nM, 39 nM, 9.8 nM or 2.5 nM, respectively, with 3 repeated wells/group, and the cells were incubated at 37° C. for 72 hours.
(4) 10-fold BrdU solution (10 μL) was added to each well, and the cells were incubated in the incubator for 4 hours, followed by discarding the culture medium.
(5) Fixing/denaturation solution (10 μL) was added to each well, and the cells were incubated at room temperature for 30 minutes, followed by discarding the solution.
(6) 1-fold detection antibody solution (100 μL) was added to each well, the cells were incubated at room temperature for 1 hour, followed by discarding the solution, and the cells were washed with 1-fold washing solution (200 μL/well) three times.
(7) 1-fold HRP-labelled secondary antibody solution (100 μL) was added to each well, the cells were incubated at room temperature for 30 minutes, followed by discarding the solution, and the cells were washed with 1-fold washing solution (200 μL/well) three times.
(8) TMB substrate solution (100 μL) was added to each well, and the cells were incubated at room temperature for 30 minutes.
(9) Stop solution (100 μL) was added to each well, and the OD value at 450 nm was measured by a microplate reader.
1) Cell survival rate (%)=(ODtest compound−ODblank control)/(ODnormal cell control−ODblank control)×100%,
2) The data was processed by GraphPad Prism 5 software to obtain the curve and IC50 values.

Abemaciclib [LY2834219, reference compound]
clinical benefit rate (metastatic breast cancer): 61% | IC50 (MCF-7 cells): 120 nM
